In patent publication US20230233569A1 (Revolution Medicines, Inc., priority 2020, published 2023):
Read-outs that look alike come from different tables or passages of the source.

How the values were obtained:
[1] = system: Capan-1 (K-Ras G12V); assay: CellTiter-Glo cell viability assay, 5-day treatment; format: cell-based; settings: Homo sapiens, CAPAN-1, 120 h, 5-day treatment; read-out: Capan-1 Cell Viability assay data (K-Ras G12V, IC50)
Method in brief: (§1)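 Seeded cells received test compound by direct dispensing. On day 5 the plates sat at room temperature approximately 30 minutes, then luminescence was measured. Data were normalized to DMSO and curve-fitted with four parameters.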

[2] = system: NCI-H358 (K-Ras G12C); assay: as above; format: cell-based; settings: Homo sapiens, NCI-H358, 120 h, 5-day treatment; read-out: H358 Cell Viability assay data (K-Ras G12C, IC50)
Method in brief: as §1

[3] = biological target: KRAS G12C (Homo sapiens, UniProt P01116+P62937, G12C); assay: Disruption of BRAF RBD interaction with Ras (FRET / MOA assay, with Cyclophilin A); format: biochemical
Method in brief: (§2)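 Measured via TR-FRET after 3 h at 25 °C with compound (30 μM top, threefold serial steps, ten concentrations) plus K-Ras, Cyclophilin A and BRAF RBD, followed by 1.5 h with anti-His europium (10 nM) and anti-GST allophycocyanin (50 nM). Signal loss versus DMSO gave IC50.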

[4] = biological target: KRAS G12D (Homo sapiens, UniProt P01116+P62937, G12D); assay: as above; format: biochemical
Method in brief: as §2

[5] = biological target: KRAS G12S (Homo sapiens, UniProt P01116+P62937, G12S); assay: as above; format: biochemical
Method in brief: as §2

[6] = biological target: KRAS G12V (Homo sapiens, UniProt P01116+P62937, G12V); assay: as above; format: biochemical
Method in brief: as §2

[7] = biological target: KRAS G13C (Homo sapiens, UniProt P01116+P62937, G13C); assay: as above; format: biochemical
Method in brief: as §2

[8] = biological target: KRAS G13D (Homo sapiens, UniProt P01116+P62937, G13D); assay: as above; format: biochemical
Method in brief: as §2

[9] = biological target: KRAS WT (Homo sapiens, UniProt P01116+P62937); assay: as above; format: biochemical
Method in brief: as §2

[10] = biological target: NRAS G12C (Homo sapiens, UniProt P01111+P62937, G12C); assay: as above; format: biochemical
[11] = biological target: KRAS Q61H (Homo sapiens, UniProt P01116+P62937, Q61H); assay: as above; format: biochemical
Method in brief: (§3)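 IC50 reflects compound-driven Ras:Cyclophilin A ternary complex displacing BRAF RBD, read as lowered TR-FRET ratio relative to DMSO after Eu anti-His (10 nM) and APC anti-GST (50 nM) detection for 1.5 h. Prior incubation 3 h, 25° C, with 12.5 nM GMPPNP-loaded Ras, 50 nM BRAF RBD, 25 μM Cyclophilin A; top compound 30 μM.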

[12] = biological target: NRAS Q61K (Homo sapiens, UniProt P01111+P62937, Q61K); assay: as above; format: biochemical
Method in brief: as §3

[13] = biological target: NRAS Q61R (Homo sapiens, UniProt P01111+P62937, Q61R); assay: as above; format: biochemical
Method in brief: as §3

[14] = biological target: NRAS WT (Homo sapiens, UniProt P01111+P62937); assay: as above; format: biochemical
Method in brief: as §3

[15] = read-out: KRAS G12C FRET data, IC50
[16] = read-out: KRAS G12D FRET data, IC50
[17] = read-out: KRAS G12S FRET data, IC50
[18] = KRAS G12V, read-out: KRAS G12V FRET data IC50
[19] = read-out: KRAS G13C FRET data, IC50
[20] = KRAS G13D, read-out: KRAS G13D FRET data IC50
[21] = KRAS WT, read-out: KRAS WT FRET data IC50
[22] = NRAS G12C, read-out: NRAS G12C FRET data IC50
[23] = KRAS Q61H, read-out: KRAS Q61H FRET data IC50
[24] = NRAS Q61K, read-out: NRAS Q61K FRET data IC50
[25] = NRAS Q61R, read-out: NRAS Q61R FRET data IC50
[26] = NRAS WT, read-out: NRAS WT FRET data IC50

Chain of NRAS G12C (P01111 whole entry G12C): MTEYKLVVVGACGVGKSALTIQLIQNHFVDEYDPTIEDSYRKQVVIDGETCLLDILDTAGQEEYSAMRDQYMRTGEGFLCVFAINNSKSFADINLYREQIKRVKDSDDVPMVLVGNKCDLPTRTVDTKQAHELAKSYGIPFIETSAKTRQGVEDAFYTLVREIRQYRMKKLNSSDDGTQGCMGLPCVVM
Chain of NRAS G12C (P62937 whole entry): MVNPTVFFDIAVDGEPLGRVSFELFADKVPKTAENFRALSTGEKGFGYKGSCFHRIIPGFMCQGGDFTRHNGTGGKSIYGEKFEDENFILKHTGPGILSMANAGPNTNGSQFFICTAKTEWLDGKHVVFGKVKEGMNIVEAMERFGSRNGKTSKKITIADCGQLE
Chain of KRAS G12S (P01116 1-169 isoform P01116-2 G12S limits assumed): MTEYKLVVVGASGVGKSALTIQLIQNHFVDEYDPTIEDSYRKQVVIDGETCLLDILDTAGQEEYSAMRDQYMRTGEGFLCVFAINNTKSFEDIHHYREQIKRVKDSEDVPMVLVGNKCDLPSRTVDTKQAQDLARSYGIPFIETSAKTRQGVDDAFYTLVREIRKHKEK
Chain of KRAS G12S (P62937 whole entry): as the sequence (P62937 whole entry) above
Chain of KRAS Q61H (P01116 1-169 isoform P01116-2 Q61H limits assumed): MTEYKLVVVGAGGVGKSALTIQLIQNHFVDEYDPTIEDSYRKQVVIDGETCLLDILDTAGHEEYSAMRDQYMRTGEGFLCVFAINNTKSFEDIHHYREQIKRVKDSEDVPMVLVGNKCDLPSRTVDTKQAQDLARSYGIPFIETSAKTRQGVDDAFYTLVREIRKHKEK
Chain of KRAS Q61H (P62937 whole entry): as the sequence (P62937 whole entry) above
Chain of KRAS G13C (P01116 1-169 isoform P01116-2 G13C): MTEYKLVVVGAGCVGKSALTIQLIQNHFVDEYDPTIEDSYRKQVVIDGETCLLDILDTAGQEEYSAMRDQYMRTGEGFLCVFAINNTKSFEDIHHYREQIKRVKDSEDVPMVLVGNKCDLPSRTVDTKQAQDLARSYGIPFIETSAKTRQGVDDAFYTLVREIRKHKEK
Chain of KRAS G13C (P62937 whole entry): as the sequence (P62937 whole entry) above
Chain of NRAS Q61R (P01111 whole entry Q61R): as the sequence (P01111 whole entry G12C) above, with C12G, Q61R counted along it
Chain of NRAS Q61R (P62937 whole entry): as the sequence (P62937 whole entry) above
Chain of NRAS WT (P01111 whole entry): as the sequence (P01111 whole entry G12C) above, with C12G counted along it
Chain of NRAS WT (P62937 whole entry): as the sequence (P62937 whole entry) above
Chain of KRAS G12C (P01116 1-169 isoform P01116-2 G12C): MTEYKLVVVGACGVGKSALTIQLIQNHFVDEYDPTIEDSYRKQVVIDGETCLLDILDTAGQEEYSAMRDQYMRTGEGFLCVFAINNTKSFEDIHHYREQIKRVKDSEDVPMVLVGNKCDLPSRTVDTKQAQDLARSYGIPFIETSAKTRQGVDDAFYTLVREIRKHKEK
Chain of KRAS G12C (P62937 whole entry): as the sequence (P62937 whole entry) above
Chain of KRAS G13D (P01116 1-169 isoform P01116-2 G13D limits assumed): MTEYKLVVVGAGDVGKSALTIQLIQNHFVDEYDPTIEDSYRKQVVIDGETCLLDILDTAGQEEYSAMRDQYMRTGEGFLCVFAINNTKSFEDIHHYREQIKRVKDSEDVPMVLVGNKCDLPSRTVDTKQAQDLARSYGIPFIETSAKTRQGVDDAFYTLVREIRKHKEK
Chain of KRAS G13D (P62937 whole entry): as the sequence (P62937 whole entry) above
Chain of NRAS Q61K (P01111 whole entry Q61K): as the sequence (P01111 whole entry G12C) above, with C12G, Q61K counted along it
Chain of NRAS Q61K (P62937 whole entry): as the sequence (P62937 whole entry) above
Chain of KRAS G12V (P01116 1-169 isoform P01116-2 G12V limits assumed): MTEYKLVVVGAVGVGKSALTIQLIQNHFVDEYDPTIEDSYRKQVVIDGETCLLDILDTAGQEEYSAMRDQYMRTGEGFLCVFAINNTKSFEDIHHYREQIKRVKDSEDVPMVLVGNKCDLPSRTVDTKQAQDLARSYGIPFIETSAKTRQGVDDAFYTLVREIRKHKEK
Chain of KRAS G12V (P62937 whole entry): as the sequence (P62937 whole entry) above
Chain of KRAS WT (P01116 1-169 isoform P01116-2 limits assumed): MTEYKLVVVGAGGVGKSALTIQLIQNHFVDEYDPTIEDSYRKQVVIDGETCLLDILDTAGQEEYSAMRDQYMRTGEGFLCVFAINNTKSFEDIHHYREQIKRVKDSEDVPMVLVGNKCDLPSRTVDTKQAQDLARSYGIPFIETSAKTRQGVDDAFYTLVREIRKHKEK
Chain of KRAS WT (P62937 whole entry): as the sequence (P62937 whole entry) above
Chain of KRAS G12D (P01116 1-169 isoform P01116-2 G12D limits assumed): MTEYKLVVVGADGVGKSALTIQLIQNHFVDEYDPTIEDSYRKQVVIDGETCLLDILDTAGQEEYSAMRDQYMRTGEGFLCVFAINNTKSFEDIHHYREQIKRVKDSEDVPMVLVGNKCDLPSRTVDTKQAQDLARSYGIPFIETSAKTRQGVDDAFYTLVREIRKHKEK
Chain of KRAS G12D (P62937 whole entry): as the sequence (P62937 whole entry) above

Structure (SMILES)	IC50 [2] [nM]	IC50 [3, 15] [nM]	IC50 [4, 16] [nM]	IC50 [5, 17] [nM]	IC50 [6, 18] [nM]	IC50 [7, 19] [nM]	IC50 [8, 20] [nM]	IC50 [9, 21] [nM]	IC50 [10, 22] [nM]	IC50 [11, 23] [nM]	IC50 [12, 24] [nM]	IC50 [13, 25] [nM]	IC50 [14, 26] [nM]	IC50 [1] [nM]	further results
CCn1c(-c2cccnc2[C@H](C)OC)c2c3cc(ccc31)-c1csc(n1)C[C@H](NC(=O)[C@H](C(C)C)N(C)C(=O)N1CC(OC)C1)C(=O)N1CC[C@H](C)[C@H](N1)C(=O)OCC(C)(C)C2 [Example A579, N-((2S)-1-(((6^3S,6^4S,4S,Z)-1^1-ethyl-1^2-(2-((S)-1-methoxyethyl)pyridin-3-yl)-6^4,10,10-trimethyl-5,7-dioxo-6^1,6^2,6^3,6^4,6^5,6^6-hexahydro-1^1H-8-oxa-2(4,2)-thiazola-1(5,3)-indola-6(1,3)-pyridazinacycloundecaphane-4-yl)amino)-3-methyl-1-oxobutan-2-yl)-3-methoxy-N-methylazetidine-1-carboxamide]	100 to 1000	100 to 1000	1000 to 10000	1000 to 10000	100 to 1000	100 to 1000	1000 to 10000	100 to 1000	100 to 1000	100 to 1000	100 to 1000	100 to 1000	100 to 1000	100 to 1000	
CCn1c(-c2cccnc2[C@H](C)OC)c2c3cc(ccc31)-c1csc(n1)C[C@H](NC(=O)[C@H](C(C)C)N(C)C(=O)N1C3CC1CS(=O)(=O)C3)C(=O)N1CCC[C@H](N1)C(=O)OCC(C)(C)C2 [Example A496]	100 to 1000	100 to 1000	1000 to 10000	1000 to 10000	100 to 1000	1000 to 10000	1000 to 10000	100 to 1000	100 to 1000	100 to 1000	100 to 1000	1000 to 10000	100 to 1000	100 to 1000	

Continued, in another order:

IC50 [2] [nM]	IC50 [3, 15] [nM]	IC50 [4, 16] [nM]	IC50 [5, 17] [nM]	IC50 [6, 18] [nM]	IC50 [7, 19] [nM]	IC50 [8, 20] [nM]	IC50 [9, 21] [nM]	IC50 [10, 22] [nM]	IC50 [11, 23] [nM]	IC50 [12, 24] [nM]	IC50 [13, 25] [nM]	IC50 [14, 26] [nM]	Structure (SMILES)	IC50 [1] [nM]	further results
1000 to 10000													CCn1c(-c2cnccc2COC)c2c3cc(ccc31)-c1cc(O)cc(c1)C[C@H](NC(=O)[C@H](C(C)C)N(C)C(=O)[C@H]1CCN(S(C)(=O)=O)C1)C(=O)N1CCC[C@H](N1)C(=O)OCC(C)(C)C2 [Example A24, (2S)—N-[(8S,14S)-22-ethyl-4-hydroxy-21-[4-(methoxymethyl)pyridin-3-yl]-18,18-dimethyl-9,15-dioxo-16-oxa-10,22,28-triazapentacyclo[18.5.2.1^2,6.1^10,14.0^23,27]nonacosa-1(26),2,4,6(29),20,23(27),24-heptaen-8-yl]-2-{1-[(3S)-1-methanesulfonylpyrrolidin-3-yl]-N-methylformamido}-3-methylbutanamide]	1000 to 10000	IC50 ([3]; KRAS G12C FRET data, IC50): 100 to 1000 nM; IC50 ([4]; KRAS G12D FRET data, IC50): 1000 to 10000 nM; IC50 ([5]; KRAS G12S FRET data, IC50): 100 to 1000 nM; IC50 ([6]; KRAS G12V FRET data IC50, KRAS G12V): 100 to 1000 nM; IC50 ([7]; KRAS G13C FRET data, IC50): 100 to 1000 nM; IC50 ([8]; KRAS G13D FRET data IC50, KRAS G13D): 100 to 1000 nM; IC50 ([9]; KRAS WT FRET data IC50, KRAS WT): 100 to 1000 nM; IC50 ([10]; NRAS G12C FRET data IC50, NRAS G12C): 100 to 1000 nM; IC50 ([11]; KRAS Q61H FRET data IC50, KRAS Q61H): 10 to 100 nM; IC50 ([12]; NRAS Q61K FRET data IC50, NRAS Q61K): 100 to 1000 nM; IC50 ([13]; NRAS Q61R FRET data IC50, NRAS Q61R): 100 to 1000 nM; IC50 ([14]; NRAS WT FRET data IC50, NRAS WT): 100 to 1000 nM
10 to 100	10 to 100	100 to 1000	100 to 1000	100 to 1000	100 to 1000	100 to 1000	100 to 1000	10 to 100	100 to 1000	10 to 100	100 to 1000	100 to 1000	CCn1c(-c2cccnc2[C@H](C)OC)c2c3cc(ccc31)-c1csc(n1)C[C@H](NC(=O)[C@H](C(C)C)N(C)C(=O)N1CC([C@@H](C)N(C)C)C1)C(=O)N1CCC[C@H](N1)C(=O)OCC(C)(C)C2 (atropisomer, axis not shown) [Example A458]	10 to 100	
100 to 1000	1000 to 10000	1000 to 10000	1000 to 10000	1000 to 10000	1000 to 10000	1000 to 10000	1000 to 10000	1000 to 10000	100 to 1000	100 to 1000	1000 to 10000	1000 to 10000	CCn1c(-c2cccnc2[C@H](C)OC)c2c3cc(ccc31)-c1nc(cs1)C[C@H](NC(=O)[C@H](C(C)C)N(C)C(C)=O)C(=O)N1CCC[C@H](N1)C(=O)OCC(C)(C)C2 [Example A152]	100 to 1000	
